Emission maximum data for 46 molecules are collected here from the Deep4Chem optical property database.

This series can be described thus: solvent given as SMILES.

Consider `C[n+]1ccc(/C=C/c2ccc([O-])cc2)cc1`, for which the emission maximum is, setting by setting: (in CC#N) 606 nm; (in CC(C)=O) 610 nm; (in CC(C)O) 594 nm; (in CCCO) 587 nm; (in CCO) 582 nm; (in CN(C)C=O) 608 nm. For the same molecule, the emission maximum was 576 nm (in CO); 608 nm (in CS(C)=O); 615 nm (in ClCCl); 577 nm (in NC=O); 560 nm (in O); 573 nm (in OCCO).
With `O=c1c2cc(F)c(O)cc2sc2cc(O)c(F)cc12`, the emission maximum (in CCO) is on record as 465 nm.
Molecule `CC1(C)CC(=O)c2cc(F)cc(F)c2N1` displayed an emission maximum (in CC#N) of 455 nm and an emission maximum (in CCO) of 492 nm.
As for `COc1cc2cc(OC)c(-c3ccc([N+](=O)[O-])cc3)cc2cc1-c1ccc([N+](=O)[O-])cc1`, the emission maximum (in ClC(Cl)Cl) came out at 544 nm and the emission maximum (in ClCCl) is listed as 578 nm.
For `COc1cc2c(cc1OC)C1=C3C(=O)N4C=Cc5cc(OC)c(OC)cc5C4=C3C(=O)N1C=C2`, the emission maximum reads like this: (in CN(C)C=O) 602 nm; (in ClC(Cl)Cl) 597 nm.
As for `CCN(CC)c1ccc2cc(/C=C/C(O)=C3\CC/C(=C\c4cc5ccc(N(CC)CC)cc5oc4=O)C3=O)c(=O)oc2c1`, the emission maximum (in C1COCCO1) came to 581 nm; the emission maximum (in CC#N) is recorded as 637 nm; the emission maximum (in CC(C)=O) was 613 nm; the emission maximum (in CCOC(C)=O) is on record as 589 nm; the emission maximum (in CN(C)C=O) worked out at 638 nm; the emission maximum (in CS(C)=O) is given as 639 nm. Further, the emission maximum is listed as 570 nm (in Cc1ccccc1) and 605 nm (in ClC(Cl)Cl).
On to `CN(C)c1ccc(C(=O)Nc2ccc(Cl)cc2)cc1`, for which the emission maximum reads like this: (in C1CCCCC1) 435 nm; (in C1CCOC1) 490 nm; (in CC#N) 498 nm; (in CCOCC) 481 nm.
As to `Cc1c(C)n2c(COC(=O)c3ccccc3O)c(C)c(=O)n2c1=O`, for the setting “in CCO”, the emission maximum came out at 465 nm.
On to `CCN(CC)c1ccc2cc(-c3ccc(-c4ccc5ccc6c(-c7ccc(-c8cc9ccc(N(CC)CC)cc9oc8=O)cc7)ccc7ccc4c5c76)cc3)c(=O)oc2c1`, for which the emission maximum (in ClC(Cl)Cl) was determined as 475 nm.
`COc1ccc2cc(C3=[N+]4C(=Nc5c(-c6ccc7ccccc7c6)cc(-c6ccc7cc(OC)ccc7c6)n5[B-]4(F)F)C(c4ccc5ccccc5c4)=C3)ccc2c1` registered an emission maximum (in ClCCl) of 754 nm.
`CC1=C(c2ccccc2)C2=Cc3c(-c4ccccc4)c(C)c(C)n3[B-](F)(F)[N+]2=C1C` registered an emission maximum (in CC#N) of 549 nm.
Turning to `CCn1c2ccccc2c2c3nsnc3c3c4ccccc4n(CC)c3c21`, the emission maximum was found to be 500 nm (in CN(C)C=O), 470 nm (in Cc1ccccc1) and 497 nm (in ClCCl).
`N#Cc1c(N2CCCCC2)cc(-c2ccc3ccc4cccc5ccc2c3c45)c2c1Cc1ccccc1-2` came in with an emission maximum (in C1CCOC1) of 481 nm.
`CCCCN1/C(=C/C=C/C2=[N+](C)c3ccccc3C2(C)C)C(C)(C)c2cc(OC)ccc21` yielded an emission maximum (in CS(C)=O) of 585 nm.
The molecule `c1ccc2c(c1)CC1(C2)c2cc(N3c4ccccc4Sc4ccccc43)ccc2-c2ccc(N3c4ccccc4Sc4ccccc43)cc21` registered an emission maximum (in Cc1ccccc1) of 495 nm.
`CC1(C)c2ccccc2-c2cc3c(cc21)N(c1ccc(-c2nc(-c4ccc(N5c6ccccc6C(c6ccccc6)(c6ccccc6)c6cc7c(cc65)C(C)(C)c5ccccc5-7)cc4)nc(-c4ccc(N5c6ccccc6C(c6ccccc6)(c6ccccc6)c6cc7c(cc65)C(C)(C)c5ccccc5-7)cc4)n2)cc1)c1ccccc1C3(c1ccccc1)c1ccccc1` gave an emission maximum (in Cc1ccccc1) of 515 nm.
`CCOC(=O)/N=c1/oc2c(OC)cccc2cc1C#N` returned an emission maximum (in ClCCl) of 465 nm.
Regarding `c1ccc2c(-c3cncnc3)c3ccccc3c(-c3cncnc3)c2c1`, the emission maximum came out at 417 nm (in CCO) and 417 nm (in ClCCl).
On to `CC1(C)c2ccccc2N(c2ccc(-c3ncccn3)cc2)c2ccccc21`, for which the emission maximum stood at 448 nm (in Cc1ccccc1) and 457 nm (in O=P(c1ccccc1)(c1ccccc1)c1ccc2oc3ccc(P(=O)(c4ccccc4)c4ccccc4)cc3c2c1).
Molecule `COc1ccc(C2=[N+]3C(=Nc4c(C)cc(-c5ccc(OC)cc5)n4[B-]3(F)F)C(C)=C2)cc1` came in with an emission maximum (in CS(C)=O) of 692 nm.
In turn, `CC1(C)Nc2cc3nc4cc(F)c(F)cc4nc3cc2N1` returned an emission maximum (in CCO) of 496 nm.
Under “in ClCCl”, `CCCCNc1ccc2n1[B-](F)(F)[N+]1=CC(/C=C/C(=O)OC(C)(C)C)=CC1=C2c1c(C)cc(C)cc1C` came in with an emission maximum of 546 nm.
With `COCCC1=Cc2nc1ccc1[nH]c(cc1CCOC)c1nc(c(O)cc3[nH]c2cc3CCOC)C(CCOC)=C1`, where the note is “in Cc1ccccc1”, the emission maximum turned out to be 688 nm.
Turning to `CN(C)c1ccc(C2=Cc3cccc[n+]3[B-](F)(F)O2)cc1`, the emission maximum was 499 nm (in C1CCOC1); 486 nm (in C1COCCO1); 447 nm (in CC1CCCCC1); 528 nm (in CC#N); 499 nm (in CCOC(C)=O); 477 nm (in CCOCC). Moreover, the emission maximum runs as follows: (in CN(C)C=O) 530 nm; (in CO) 517 nm; (in COC(C)=O) 514 nm; (in ClC(Cl)Cl) 490 nm.
In the case of `c1ccc2c(c1)-c1c(ccc3ccccc13)C21c2cc(-c3ccc4ccc5cccc6ccc3c4c56)ccc2-c2ccc(-c3ccc4ccc5cccc6ccc3c4c56)cc21`, the emission maximum (in ClC(Cl)Cl) came out at 422 nm.
`c1ccc(-c2c3c(c(-c4ccccc4)c4cc5ccccc5cc24)Cc2c(c(-c4ccccc4)c4cc5ccccc5cc4c2-c2ccccc2)C3)cc1`: the emission maximum is, setting by setting: (in CC#N) 400 nm; (in CCCCCC) 396 nm; (in CO) 398 nm; (in Cc1ccccc1) 402 nm; (in ClCCl) 402 nm.
In turn, `N#Cc1cc(-n2c3ccccc3c3ccccc32)c(-n2c3ccccc3c3ccccc32)cc1-c1cc(-n2c3ccccc3c3ccccc32)c(-n2c3ccccc3c3ccccc32)cc1C#N` gave an emission maximum (in Cc1ccccc1) of 458 nm.
In the case of `c1ccc(N(c2ccccc2)c2ccc(-c3ncc(-c4cnc(-c5ccc(N(c6ccccc6)c6ccccc6)cc5)s4)s3)cc2)cc1`, under “in CO”, the emission maximum amounted to 510 nm.
On to `FC(F)(F)c1ccc(-n2c(-c3ccc(N(c4ccc(-c5ccc(N(c6ccc(-c7nc8c9ccccc9c9ccccc9c8n7-c7ccc(C(F)(F)F)cc7)cc6)c6ccc(-c7nc8c9ccccc9c9ccccc9c8n7-c7ccc(C(F)(F)F)cc7)cc6)cc5)cc4)c4ccc(-c5nc6c7ccccc7c7ccccc7c6n5-c5ccc(C(F)(F)F)cc5)cc4)cc3)nc3c4ccccc4c4ccccc4c32)cc1`, for which, for the setting “in ClCCl”, the emission maximum is recorded as 442 nm.
As to `COC(=O)c1cc(=O)n(C)c2cc(-c3cc4c5c(c3)CCCN5CCC4)sc12`, the emission maximum by setting is: (in C1CCOC1) 502 nm; (in CC#N) 511 nm; (in CCO) 508 nm; (in CN(C)C=O) 509 nm; (in CO) 493 nm; (in CS(C)=O) 508 nm. The emission maximum by setting is: (in Cc1ccccc1) 529 nm; (in ClC(Cl)Cl) 580 nm; (in ClCCl) 605 nm.
`CCn1c2cc(-c3cccs3)ccc2c2ccc(-c3cccs3)cc21`: where the note is “in ClCCl”, the emission maximum is 391 nm.
For `CC(C)(C)c1ccc(C#Cc2c(C#Cc3ccc(C(C)(C)C)cc3)c3cccc4c(C#Cc5ccc(C(C)(C)C)cc5)c(C#Cc5ccc(C(C)(C)C)cc5)c5cccc2c5c34)cc1`, where the note is “in ClCCl”, the emission maximum came out at 443 nm.
Molecule `COc1ccc2c(c1)c(C#N)cc1c(OC)c(OC)c3cc(C#N)c4cc(OC)ccc4c3c12` registered an emission maximum (in ClC(Cl)Cl) of 496 nm.
As to `Brc1ccc(N/C=C/C=[NH+]c2ccc(Br)cc2)cc1`, the emission maximum (in CS(C)=O) is 497 nm.
Regarding `C(#Cc1ncnc2ccccc12)c1ccc(N(c2ccccc2)c2ccccc2)cc1`, the emission maximum was 433 nm (in C1CCCCC1); 535 nm (in C1CCOC1); 610 nm (in CC#N); 616 nm (in CS(C)=O); 565 nm (in ClCCl).
`CCN(CC)c1ccc2c(-c3ccccc3C(=O)O)c3c([o+]c2c1)/C(=C/c1ccc(N(C)C)cc1)CCC3`: where the note is “in ClCCl”, the emission maximum is 757 nm.
With `COc1cc(OC)c2cc(-c3ccc(-c4cc5c(OC)cc(OC)cc5oc4=O)cc3)c(=O)oc2c1`, the emission maximum (in ClC(Cl)Cl) is 446 nm.
With `C[Si](C)(C)C#Cc1c2c(=O)c3ccccc3c2c(C#C[Si](C)(C)C)c2c(=O)c3ccccc3c12`, the emission maximum (in ClC(Cl)Cl) was determined as 571 nm.
Under “in CCO”, `CNc1cc2nc3cc(Cl)c(Cl)cc3nc2cc1NC` had an emission maximum of 541 nm.
`CC(C)(C)c1ccc2c(c1)c1cc(C(C)(C)C)cc3c1n2-c1cc(-c2ccccc2F)cc2c1B3c1cc(C(C)(C)C)cc3c4cc(C(C)(C)C)ccc4n-2c13` displayed an emission maximum (in Cc1ccccc1) of 499.76 nm.
For `CC(=O)Nc1ccc(S(=O)(=O)O)c(/N=N/c2c(O)c3ccccc3n(C)c2=O)c1`, the emission maximum was 523 nm (in C1CCOC1); 516 nm (in CC(C)=O); 523 nm (in CCOC(C)=O); 512 nm (in CO); 526 nm (in CS(C)=O); 517 nm (in Cc1ccccc1). In addition, the emission maximum turned out to be 528 nm (in ClCCl) and 549 nm (in O).
Consider `CC(C)(C)C1CCC(=CS/C=C/c2ccc(-c3ccc(/C=C/SC=C4CCC(C(C)(C)C)CC4)cc3)cc2)CC1` (centres undefined), for which the emission maximum (in ClCCl) is reported as 432 nm.
`c1ccc(-c2c3ccccc3nc3cc4ccccc4cc23)cc1` yielded an emission maximum (in ClCCl) of 525 nm.
In turn, `COOCc1noc(-c2ccccc2)c1Cl` displayed an emission maximum (in C1CCCCC1) of 345 nm.
Take `Cc1ccc2c(c1)c(C#N)c(C#N)c1cc(C)ccc12`: the emission maximum (in ClC(Cl)Cl) is given as 396 nm.
Consider `CCCCCCc1ccc2c(/C=N/c3ccc(/N=C/c4c(O)ccc5cc(CCCCCC)ccc45)cc3)c(O)ccc2c1`, for which the emission maximum (in C1CCOC1) came to 542 nm, the emission maximum (in CC#N) is 539 nm, the emission maximum (in Cc1ccccc1) is 546 nm and the emission maximum (in ClCCl) is recorded as 546 nm.
